Here are results for two compounds from patent US5280125A, “Chemical process for the preparation of 3-alkylated indole” (Imperial Chemical Industries PLC, priority 1990, dated 1994).

For one data set, the system named is LTC4, LTD4 and/or LTE4. Kind of data set: in vitro leukotriene antagonist tests (guinea-pig tracheal strip preparation or receptor-ligand binding assay). To be noted: in one of the above in vitro tests.
The next data set deals with leukotriene LTD4. Kind of data set: guinea-pig aerosol test (LTD4 aerosol challenge, onset of dyspnea). It is filed as in vivo. As for the experimental part:
According to this procedure, guinea-pigs are pre-dosed with test compound as a solution in poly(ethylene glycol) (generally 1 hour) before an aerosol challenge of leukotriene LTD4 (starting with 2 ml of a 30 microgram/ml solution) and the effect of the test compound on the average time of leukotriene initiated change in breathing pattern (such as onset of dyspnea) recorded and compared with that in undosed, control guinea-pigs. Percent protection engendered by a test compound was calculated from the time delay to the onset of dyspnea compared to that for control animals.

Regarding `COc1cc(C(=O)NS(=O)(=O)c2ccccc2C)ccc1Cc1cn(C)c2ccc(C(=O)NCC(C)CC(F)(F)F)cc12` (stereo not drawn) [compound of formula I, 4-[5-(N-[4,4,4-trifluoro-2-methylbutyl]carbamoyl)-1-methylindol-3-ylmethyl]-3-methoxy-N-o-tolylsulphonylbenzamide], the “concentration showing statistically significant activity as LTC4, LTD4 and/or LTE4 antagonist” value in the data set with LTC4, LTD4 and/or LTE4 is ≤ 10^-8 M.

For orientation: ED50 means the midpoint of the dose-response relation. A low value points to an effect at a small dose. Compound `COc1cc(C(=O)NS(=O)(=O)c2ccccc2C)ccc1Cc1cn(C)c2ccc(C(=O)NC[C@H](C)CC(F)(F)F)cc12` [compound of formula I substantially in the form of the (R)-enantiomer, (R)-4-[5-(N-[4,4,4-trifluoro-2-methylbutyl]carbamoyl)-1-methylindol-3-yl-methyl]-3-methoxy-N-o-tolylsulphonylbenzamide] displayed an ED50 in the data set on leukotriene LTD4 (Cavia porcellus, 1 h, oral administration, protection against LTD4 aerosol-induced dyspnea) of 1.1 µmol/kg. Also, the untoward side-effects result in the data set with leukotriene LTD4 (oral, at several multiples of the minimum effective dose) is “without any indication of untoward side-effects”.
